Test results taken from article PMC3486420, “In Vitro and In Vivo Characterizations of Chiglitazar, a Newly Identified PPAR Pan-Agonist” (PPAR Research, 2012).

What was measured:
SMMC-7721 cells = assay: Gene expression by RT-PCR in SMMC-7721 cells; type: cell-based, human; details: 48 h, 10 μM rosiglitazone, 10 μM chiglitazar
Source text: cDNAs for human retinoid X receptor (hRXR), PPARα, PPARγ, and PPARδ were obtained by reverse transcriptase polymerase chain reaction (RT-PCR) from human liver or adipose tissues. Amplified cDNAs were cloned into pcDNA3.1 expression vector (Invitrogen, Carlsbad, CA, USA). The integrity and fidelity of all constructs made were verified by DNA sequencing. Luciferase reporter plasmids, ACOX promoter for PPARγ and pHD(X3)-luc for PPARα, were kind gifts of Drs. TM McIntyre (University of Utah, USA) and RA Rachubinski (University of Alberta, Canada), respectively. PPRE-luc for PPARδ was constructed based on the previous report by insertion of the annealed oligonucleotides having four copies of the CYP4A6 PPRE (4 × […]) into the upstream of the luciferase coding sequence in pGL3-promoter vector (Promega, Madison, WI, USA). pCMVβGal was purchased from Clontech (Palo Alto, CA, USA). The mouse 3T3-L1 preadipocyte cell line, skeletal muscle C2C12 cell line, and macrophage RAW267.4 cell line and the human osteosarcoma U2OS cell line were obtained from the American Type Culture Collection (ATCC, Rockville, MD, USA). The human hepatoma SMMC-7721 cell line was obtained from the Cell Culture Center of Chinese Academy of Medical Sciences (Beijing, China). Cell lines were cultured in medium of DMEM (3T3-L1, C2C12, and SMMC-7721), RPMI 1640 (RAW267.4), or McCoy's 5A (U2OS), containing 10% fetal bovine serum (FBS), 50 μg/mL streptomycin, and 50 units/mL penicillin at 37°C in a humidified incubator with 5% CO2.
Total RNA was extracted from cells or tissues with an RNeasy minikit (Qiagen, Valencia, CA, USA). The first-strand cDNA was synthesized using the oligo(dT) primers, followed by using SuperScript II reverse transcriptase (Invitrogen) according to the manufacturer's instructions. The PCR amplifications were performed in 10 μL of reaction mixture volume containing 0.8 μL of cDNA, 10 mM Tris-HCl (pH 8.3), 50 mM KCl, 1.5 mM MgCl2, 0.1% Triton X-100, 0.2 mM deoxynucleotide triphosphates, 0.4 μM primers, and 0.25 U of Taq polymerase (TaKaRa Biotechnology Co., Ltd, China). Taq DNA polymerase was added to each tube after a treatment of 2 min at 94°C. This was followed by 22–30 cycles of denaturation (23 s at 94°C), annealing (20 s at 55°C), extension (30 s at 72°C), and a final extension step of 2 min. PCR products were analyzed by electrophoresis on a 1.5% agarose gel stained with ethidium bromide.
Figure 1 In vitro regulation of gene expression by chiglitazar. (a) Endogenous expression of individual PPAR subtypes in cell lines. […]. The expression change of referred genes induced by different compounds was normalized against internal control (36B4 or GAPDH) and then compared with vehicle control treatment. The data shown are averaged from 3 independent experiments.

db/db mice = assay: Oral treatment of diabetic db/db mice (glucose, insulin, IPGTT, body and fat pad weight); type: in vivo, mouse
Source text: Male db/db mice (BKS.Cg-m +/+ LEPR^db) in 6-7 weeks were purchased from The Jackson Laboratory (Bar Harbor, ME, USA). Male KKAy and C57BL/6J mice in 8–10 weeks were obtained from the Institute of Animal Science, Chinese Academy of Medical Sciences and Peking Union Medical College (Beijing, China). Animals were randomly sorted into different treatment groups (8–10 per group). […] Plasma glucose levels were examined at various time points by Accu-Chek Advantage II Glucose Strips (Roche Diagnostics, Basel, Switzerland) and measured by Accu-Chek Advantage (Roche Diagnostics). Animals were sacrificed 24 h after the last dosing and abdominal fat pad, liver, and skeletal muscle from KKAy mice and abdominal fat pad from db/db mice were taken for gene expression analysis.
For intraperitoneal glucose tolerance test (IPGTT), db/db mice dosed for 14 days were fasted overnight, followed by an intraperitoneal injection of glucose (2 g kg^−1). Blood samples were taken for measurement of plasma glucose before and 30, 60, and 120 min after the glucose load. The area under curves (AUC) was calculated to evaluate the IPGTT results. To determine plasma insulin concentrations, blood samples were taken from db/db mice dosed with different reagents or vehicle for 0, 3, 6, and 9 d, and insulin levels were measured by Insulin ELISA Kit (Roche Diagnostics) following the instructions from the manufacture.
Figure 2 In vivo effects on blood glucose control and insulin sensitization of chiglitazar. Male db/db (a, c and d) and male KKAy mice (b) were treated with vehicle (Ctrl), rosiglitazone (Ros), or chiglitazar (Chi) at the indicated doses for various days. Plasma glucose (a and b) and insulin (c) levels were measured at the indicated time points. […] Data are expressed as mean ± SE.
Figure 4 Influence in body and abdominal fat pad weights of chiglitazar. […] Changes in body weight were evaluated at the indicated days (b), and the fat pads were weighed from the scarified animals at day 15 (c). ^# P < 0.05 compared with day 0, and *P < 0.05 compared with Ctrl. n = 8 per group for KKAy, and n = 10 per group for db/db. Data are expressed as mean ± SE.

## O=C(c1ccc(F)cc1)c1ccccc1NC(Cc1ccc(OCCn2c3ccccc3c3ccccc32)cc1)C(=O)O (stereo not shown) [Chi, 2-[(2-(4-fluorobenzoyl)phenyl)amino]-3-[4-(2-carbazolylethoxy)-phenyl]-propionic acid]
SMMC-7721 cells; vs vehicle
  Expression of PPARγ downstream genes AOX, LIPC and HSL: upregulated
SMMC-7721 cells; 50 μM WY14643, 5 μM 2-Bro
  Expression of LDL receptor (LDLR): kept no change
db/db mice; db/db mice, 20 mg kg^−1 oral daily, 14 days
  Glucose tolerance (IPGTT): increased
db/db mice; db/db mice, 5, 10 and 20 mg kg^−1 oral daily, 14 days
  Body weight: dose-dependent weight gain
db/db mice; db/db mice, chiglitazar 20 mg kg^−1 vs rosiglitazone 5 mg kg^−1, 14 days
  Abdominal fat pad weights: less increase
db/db mice; db/db mice, oral daily, 5 to 20 mg kg^−1, 14 days
  BG (blood glucose) levels: significantly lowered
db/db mice; db/db mice, oral daily, different doses, compared with vehicle control
  Plasma insulin concentrations: markedly decreased
